Laboratory results reported in ChEMBL document CHEMBL3797052 (Eur J Med Chem, 2016).

assay: Cytotoxicity against human HCT116 cells assessed as growth inhibition at 100 uM after 2 days by MTT assay; type: functional; conditions: HCT-116, 48 h, read-out: GI

SMILES | inhibition of growth at 100 µM
CNC(=O)c1cc(Oc2ccc3nc(NC(=O)Nc4ccc(F)cc4)sc3c2)ccn1 | 83.8%
CNC(=O)c1cc(Oc2ccc3nc(NC(=O)c4ccc(Cl)cc4Cl)sc3c2)ccn1 | 64.4%
CNC(=O)c1cc(Oc2ccc3nc(NC(=O)Nc4ccc(Br)cc4)sc3c2)ccn1 | 80%
CNC(=O)c1cc(Oc2ccc3nc(NC(=O)Nc4ccc(N5CCOCC5)cc4)sc3c2)ccn1 | 73.3%
CNC(=O)c1cc(Oc2ccc3nc(NC(=O)c4cc(Cl)cc(Cl)c4)sc3c2)ccn1 | 15.8%
CNC(=O)c1cc(Oc2ccc3nc(NC(=O)c4ccc(Cl)cc4)sc3c2)ccn1 | 80.5%
CNC(=O)c1cc(Oc2ccc3nc(NC(=O)Nc4ccc(N5CCN(C)CC5)cc4)sc3c2)ccn1 | 95%
CNC(=O)c1cc(Oc2ccc3nc(NC(=O)Nc4cc(C(F)(F)F)ccc4Cl)sc3c2)ccn1 | 90%
CNC(=O)c1cc(Oc2ccc3nc(NC(=O)Nc4ccc(Cl)cc4Cl)sc3c2)ccn1 | 93.6%
CNC(=O)c1cc(Oc2ccc3nc(NC(=O)c4cc5ccccc5o4)sc3c2)ccn1 | 77.5%

assay: Cytotoxicity against human HCT116 cells assessed as growth inhibition at 10 uM after 2 days by MTT assay; type: functional; conditions: HCT-116, 48 h, read-out: GI

SMILES | inhibition of growth at 10 µM
CNC(=O)c1cc(Oc2ccc3nc(NC(=O)Nc4ccc(F)cc4)sc3c2)ccn1 | 12.2%
CNC(=O)c1cc(Oc2ccc3nc(NC(=O)c4ccc(Cl)cc4Cl)sc3c2)ccn1 | 15.1%
CNC(=O)c1cc(Oc2ccc3nc(NC(=O)Nc4ccc(Br)cc4)sc3c2)ccn1 | 12.1%
CNC(=O)c1cc(Oc2ccc3nc(NC(=O)Nc4ccc(N5CCOCC5)cc4)sc3c2)ccn1 | 1.58%
CNC(=O)c1cc(Oc2ccc3nc(NC(=O)c4cc(Cl)cc(Cl)c4)sc3c2)ccn1 | 13.4%
CNC(=O)c1cc(Oc2ccc3nc(NC(=O)c4ccc(Cl)cc4)sc3c2)ccn1 | 27.5%
CNC(=O)c1cc(Oc2ccc3nc(NC(=O)Nc4ccc(N5CCN(C)CC5)cc4)sc3c2)ccn1 | 24.6%
CNC(=O)c1cc(Oc2ccc3nc(NC(=O)Nc4cc(C(F)(F)F)ccc4Cl)sc3c2)ccn1 | 16.3%
CNC(=O)c1cc(Oc2ccc3nc(NC(=O)Nc4ccc(Cl)cc4Cl)sc3c2)ccn1 | 32.2%
CNC(=O)c1cc(Oc2ccc3nc(NC(=O)c4cc5ccccc5o4)sc3c2)ccn1 | 9.15%

assay: Cytotoxicity against human SKBR3 cells assessed as growth inhibition at 100 uM after 2 days by MTT assay; type: functional; conditions: SK-BR-3, 48 h, read-out: GI

SMILES | inhibition of growth at 100 µM
CNC(=O)c1cc(Oc2ccc3nc(NC(=O)Nc4ccc(F)cc4)sc3c2)ccn1 | 72.9%
CNC(=O)c1cc(Oc2ccc3nc(NC(=O)c4ccc(Cl)cc4Cl)sc3c2)ccn1 | 81%
CNC(=O)c1cc(Oc2ccc3nc(NC(=O)Nc4ccc(Br)cc4)sc3c2)ccn1 | 69.2%
CNC(=O)c1cc(Oc2ccc3nc(NC(=O)Nc4ccc(N5CCOCC5)cc4)sc3c2)ccn1 | 77.7%
CNC(=O)c1cc(Oc2ccc3nc(NC(=O)c4cc(Cl)cc(Cl)c4)sc3c2)ccn1 | 84.2%
CNC(=O)c1cc(Oc2ccc3nc(NC(=O)c4ccc(Cl)cc4)sc3c2)ccn1 | 83%
CNC(=O)c1cc(Oc2ccc3nc(NC(=O)Nc4ccc(N5CCN(C)CC5)cc4)sc3c2)ccn1 | 86.4%
CNC(=O)c1cc(Oc2ccc3nc(NC(=O)Nc4cc(C(F)(F)F)ccc4Cl)sc3c2)ccn1 | 89.1%
CNC(=O)c1cc(Oc2ccc3nc(NC(=O)Nc4ccc(Cl)cc4Cl)sc3c2)ccn1 | 91.7%
CNC(=O)c1cc(Oc2ccc3nc(NC(=O)c4cc5ccccc5o4)sc3c2)ccn1 | 52.4%

assay: Cytotoxicity against human SKBR3 cells assessed as growth inhibition at 10 uM after 2 days by MTT assay; type: functional; conditions: SK-BR-3, 48 h, read-out: GI

SMILES | inhibition of growth at 10 µM
CNC(=O)c1cc(Oc2ccc3nc(NC(=O)Nc4ccc(F)cc4)sc3c2)ccn1 | 14.2%
CNC(=O)c1cc(Oc2ccc3nc(NC(=O)c4ccc(Cl)cc4Cl)sc3c2)ccn1 | 14%
CNC(=O)c1cc(Oc2ccc3nc(NC(=O)Nc4ccc(Br)cc4)sc3c2)ccn1 | 26.7%
CNC(=O)c1cc(Oc2ccc3nc(NC(=O)Nc4ccc(N5CCOCC5)cc4)sc3c2)ccn1 | 14.1%
CNC(=O)c1cc(Oc2ccc3nc(NC(=O)c4cc(Cl)cc(Cl)c4)sc3c2)ccn1 | 9.62%
CNC(=O)c1cc(Oc2ccc3nc(NC(=O)c4ccc(Cl)cc4)sc3c2)ccn1 | 18.9%
CNC(=O)c1cc(Oc2ccc3nc(NC(=O)Nc4ccc(N5CCN(C)CC5)cc4)sc3c2)ccn1 | 30.5%
CNC(=O)c1cc(Oc2ccc3nc(NC(=O)Nc4cc(C(F)(F)F)ccc4Cl)sc3c2)ccn1 | 28.3%
CNC(=O)c1cc(Oc2ccc3nc(NC(=O)Nc4ccc(Cl)cc4Cl)sc3c2)ccn1 | 22.3%
CNC(=O)c1cc(Oc2ccc3nc(NC(=O)c4cc5ccccc5o4)sc3c2)ccn1 | 54.4%
